From a melting point compilation (Tetko et al.; mined from patent text by program, amines drawn as free bases though some values may be those of a salt)

Row | melting point | Structure (SMILES)
1 | 108 °C | COc1ccccc1CNC(=O)c1ccc2nc(NCc3ccccc3OC)ccc2c1
2 | 87 to 89 °C | CC(C)[Si](OC[C@H]1C(C=O)=Cc2cc3c(cc2[C@@H]1O)OCO3)(C(C)C)C(C)C
3 | 86 to 88 °C | COCCOCCOc1ccc2c(c1)S(=O)(=O)N(Cc1ccccc1)C2=O
4 | 139 to 142 °C | Cc1c(-c2ccccc2)c(N2CC[C@H](N(C)C)C2)c2oc(-c3ccccc3[N+](=O)[O-])nc2c1C#N
5 | 160 to 161 °C | O=C(O)CCC(=NOCc1ccc(OCc2cn3c(Cl)cccc3n2)cc1)c1ccccc1
6 | 199 to 200 °C | CS(=O)(=O)c1ccc(/C(=C(\CC(=O)O)C(=O)O)c2ccc(Cl)cc2)cc1
7 | 120 °C | CC1Nc2ccc(NC(=O)c3ccc(C(=NN)C(=O)OCc4ccccc4)cc3)cc2CN(CCc2ccccc2)C1=O (stereo unspecified)
8 | 175 to 176 °C | Cc1cn(C(C)(C)C(=O)N(C)C)nc1-c1ccccc1Cl
9 | 247 °C | CC(=O)OC1CSC(Oc2ccc(-c3ccc(C#N)nc3)nc2)C(OC(C)=O)C1OC(C)=O (stereo unspecified)
10 | 180 to 182 °C | Cc1cc(=O)n(C(=O)Oc2c(C(=O)c3ccc(Cl)cc3Cl)c(C)nn2C)o1
11 | 197 to 199 °C | CC(=O)N(O)C(C)c1ccc(-c2ccc(OCc3nc4ccccc4s3)cc2)cc1 (stereo unspecified)
12 | 266 to 270 °C | CSc1ncc2cc(Br)c(=O)[nH]c2n1
13 | 206 to 208 °C | CC1NC(=O)NN=C1c1cccc(Cl)c1 (stereo unspecified)
14 | 182 to 185 °C | COc1ccc(-c2cc(-c3ccccc3C(=O)O)no2)cc1
15 | 50 to 51 °C | CCOC(=O)c1oc2ccc(OC)cc2c1OCC
16 | 142 to 144 °C | CC(C)(COc1ccc(Cl)cc1)C(O)C(Oc1ccc(Cl)cc1)n1ccnc1 (stereo unspecified)
17 | 119 to 121 °C | O=c1c(N2CCNCC2)nccn1CCOc1cc(F)cc(F)c1
18 | 97 to 98 °C | CCCc1cc(C=Cc2ccc3ccccc3n2)cc(OCC(=O)O)c1
19 | 69 °C | O=C1c2ccccc2CCC1c1ccccc1 (stereo unspecified)
20 | 204 to 205 °C | CC1(C)OCC(C(CS(=O)(=O)c2ccc(-c3ccc(C(F)(F)F)cc3)cc2)N(O)C=O)O1 (stereo unspecified)
21 | > 300 °C | O=C(O)C1=Cc2cc(-c3ccc(C(F)(F)F)cc3)ccc2S(=O)(=O)CC1
22 | 115 to 116 °C | COc1ccc(CCC(=O)C2C(=O)C=C(C)OC2=O)cc1O (stereo unspecified)
23 | 146 to 148 °C | CC(C)C1(C)C(=O)N=C2c3ncc(C4OCCO4)cc3C(=O)N21 (stereo unspecified)
24 | 186 to 187 °C | O=C(O)C1Cc2cc(-c3ccccc3)ccc2O1 (stereo unspecified)
25 | 145 to 146 °C | OC(C#CCN1CCC(O)(c2ccc(Cl)cc2)CC1)c1ccc(F)cc1 (stereo unspecified)

Row | melting point | Structure (SMILES)
26 | 104 to 105 °C | Cc1oc(-c2ccccc2)nc1COc1ccccc1COc1cccc(CC(=O)O)c1
27 | 266 to 269 °C | COc1cc2ncnc(N3CCN(C(=O)Nc4ccc(S(C)(=O)=O)cc4)CC3)c2cc1OC
28 | 277 to 279 °C | CCOC(=O)c1cnc2c(OC)cccc2c1Nc1ccc(O)cc1C
29 | 181 to 182 °C | O=Cc1ccc(OCc2cn(C(c3ccccc3)(c3ccccc3)c3ccccc3)cn2)cc1
30 | 72 to 74 °C | CCS(=O)(=O)N1CCN(CCCCCCNc2cc(OC)cc3c(C)ccnc23)CC1
31 | 96 to 98 °C | CCCc1nn(C)c(C(N)=O)c1N
32 | 93 °C | CCc1cc(C(O)(CC)CC)ccc1-c1cc(OCc2ccc(CO)c(CO)c2)ccc1CC
33 | 236 to 237 °C | COc1nc(NC(=O)NS(=O)(=O)c2cccc3c2OS(=O)(=O)C(C)=C3)c(Cl)c(OC)n1
34 | 202 to 204 °C | Cc1c(C)c(N2CCN(c3ccc(Br)cc3)CC2)c(C)c2c1OC(C)C2 (stereo unspecified)
35 | 210 to 215 °C | CCOC(=O)c1cn(-c2nnnn2C)c2nc(Cl)c(F)cc2c1=O
36 | 156 to 157 °C | CC(n1cncn1)C(O)(Cn1cncn1)c1ccc(Cl)cn1 (stereo unspecified)
37 | 176 to 177 °C | COc1ccc(-c2cccc3c2N(S(=O)(=O)c2ccc(OC)cc2)CC3)cc1
38 | > 300 °C | CC(C)(C)NC(=O)Nc1nc2nc(N)ncc2cc1-c1cccnc1
39 | 155 to 156 °C | Cc1nc(C(C)(C)C)c[nH]1
40 | 105 °C | [O-][N+](=Cc1ccccc1)CCCCCC[N+]([O-])=Cc1ccccc1
41 | 61 to 62 °C | O=C(CCCS(=O)c1ccccc1)NO (stereo unspecified)
42 | 72 to 75 °C | ClCCCOc1ccc(-c2nccs2)cc1
43 | 155 to 157 °C | COc1ccccc1-n1c(=O)[nH]c2c(C(N)=O)nc(NC[C@H]3CCCN3)nc21
44 | 110 to 112 °C | Cc1ccc2c(c1)c(-c1ccc(F)cc1)c(C)n2C1CCN(C)CC1
45 | 158 to 160 °C | O=C(c1ccc(-c2ccc3nnn(Cc4ccc5ncccc5c4)c3n2)cc1)N1CCN(CCO)CC1
46 | 202 to 204 °C | CCOC(=O)c1ccc(CCc2cnc3[nH]c(N)nc(N)c2-3)cc1
47 | 117 to 118 °C | COc1cn(-c2ccc(OC(F)(F)F)cc2F)nc(-c2ccnn2-c2ccccc2)c1=O
48 | 142 to 145 °C | Cc1cc(-c2cc(N)ccc2F)cc(C)n1
49 | 178 to 180 °C | CC#CCCn1ncc2c(N)c3c(nc21)CN(CCC)C3=O
50 | 177 to 178 °C | Oc1ccc2c(c1)CN(Cc1ccc(Cl)cc1)CC2

Row | melting point | Structure (SMILES)
51 | 137 to 139 °C | Nc1cc2c(cc1[N+](=O)[O-])CCCCC2
52 | 220 °C | O=S(=O)(Nc1ccc(Oc2cccc3cccnc23)cc1)c1ccc(Cl)cc1
53 | > 250 °C | CCOC(=O)N1CCc2c(cnc3nc(/C=C4/C(=O)N5C(C(=O)O)=CS[C@H]45)nn23)C1
54 | 139 to 145 °C | N#CCCNC(=O)c1cccc(-c2ccc3c(c2)C(Oc2ccc(Cl)cc2Cl)CC3)c1 (stereo unspecified)
55 | 106 to 108 °C | CCc1nn2ccccc2c1NC(=O)COC
56 | 280 °C | O=C1c2ccccc2-c2cc(O)cc3ccc(O)c1c23
57 | 157 to 159 °C | O=C(O)CC(C(=O)O)C(=O)O
58 | 138 °C | Nc1ccccc1C1CCCN(C(=O)C(F)(F)F)C1 (stereo unspecified)
59 | 45 to 49 °C | c1ccc(C2CCc3ccccc3S2)cc1 (stereo unspecified)
60 | 112 °C | CCOc1cc(C(C)C)c2c(c1)S(=O)(=O)N(CSc1ccccc1)C2=O
61 | 60 to 67 °C | Cc1cc(NNC(=O)OC(C)(C)C)c([N+](=O)[O-])c(N(Cc2ccccc2)Cc2ccccc2)n1
62 | 125 to 128 °C | COc1ccccc1-c1ccn2ncc(Br)c2n1
63 | 113 to 115 °C | CC(N)=CC(=O)C1CNC(C)S1(=O)=O (stereo unspecified)
64 | 153 to 155 °C | CC(=O)NCC1CC1c1ccc(Cl)c2nn(C)cc12 (stereo unspecified)
65 | 161 °C | CC(C#Cc1ccc(Oc2c(F)cccc2F)o1)N(O)C(N)=O (stereo unspecified)
66 | 170 to 171 °C | COC(=O)c1ccc2c(=O)n(CC(C)C)c(CNC(=O)OC(C)(C)C)c(-c3cccs3)c2c1
67 | 103 to 106 °C | Oc1cccc(OCCCCOc2cccc(O)c2)c1
68 | 210 to 214 °C | CC1Cc2ccc(Cl)cc2C(c2ccc([N+](=O)[O-])cc2)=NN1C(=S)Cl (stereo unspecified)
69 | 173 to 174 °C | O=c1[nH]ncc2c(OCC3CO3)cccc12 (stereo unspecified)
70 | 269 to 273 °C | COc1ccc2c(c1)c1c(n2C(=O)c2ccc(Cl)cc2)CCC(C(=O)O)C1 (stereo unspecified)
71 | 115 °C | O=S(=O)(Nc1cc(F)ccc1F)c1ccccc1
72 | 86 to 88 °C | COc1cc(OC)cc(N2CCN(C(=O)N(C)c3cc(C)c(C)cc3OC)CC2)c1
73 | 104 to 106 °C | O=S(=O)(Nc1cc(Cl)c(Cl)cc1Cl)C(F)(F)F
74 | 87 to 88 °C | COc1cccc(S(=O)(=O)c2ccc(C)nc2Nc2c(C)cc(C)cc2C)c1
75 | 92 to 93 °C | CCC=CCn1c(C)c(C)c2cnnc(OCc3ccccc3)c21

Row | melting point | Structure (SMILES)
76 | 80 to 82 °C | O=[N+]([O-])c1cnccc1NCCCCO
77 | 121 to 123 °C | COC(=O)c1cccnc1NS(=O)(=O)NC(C)C
78 | 138 to 139 °C | c1ccc2c(c1)c1c(N3CCCC3)nc(N3CCCC3)nc1n2CCN1CCOCC1
79 | 123 to 125 °C | CCCN(CCC)CCOc1ccc2[nH]c(C)c(C(=O)OCc3ccccc3)c2c1
80 | 154 to 156 °C | COc1ccc(Cl)c(C(N)=O)c1F
81 | 93 to 95 °C | COc1ccc(C(=O)c2ccc(Br)cc2)c(C)c1F
82 | 130 to 132 °C | N#Cc1cn(-c2c(Cl)cc(C(F)(F)F)cc2Cl)c(N)c1I
83 | 89 to 90 °C | Clc1cc(CC(Cl)Cl)cnc1Cl
84 | 41.4 to 44.6 °C | Cc1cc(C(Cl)=C(Cl)Cl)cc(C(Cl)=C(Cl)Cl)c1
85 | 102 to 105 °C | Cc1cc(Cl)ccc1OCC(=O)N1Cc2ccc(C(=O)c3ccc(-c4ccccc4)cc3)n2Cc2ccccc21
86 | 123 to 124 °C | COC(=O)C(O)CCN1C(=O)c2ccccc2C1=O (stereo unspecified)
87 | 106 to 109 °C | COC(=O)CCc1cc2cc(Cl)ccc2n1S(=O)(=O)c1cccc(OC)c1
88 | 191 °C | CCCc1nc(NN)nc(O)c1Cc1ccc(-c2ccccc2C#N)cc1
89 | 226 to 227 °C | Cc1cc2c(cc1C)CC(C)NC(=O)C2 (stereo unspecified)
90 | 224 °C | COc1cc2cc(C#N)c(Cl)nc2cc1OC
91 | 77 to 81 °C | O=C(O)CCCNc1ccccc1CNC(=O)C1Cc2ccccc2N1S(=O)(=O)c1ccc(-c2cccc(C(F)(F)F)c2)cc1 (stereo unspecified)
92 | 194 to 196 °C | Nc1c(Nc2ccc(O)cc2)ncnc1-c1ccc(C(F)(F)F)cc1F
93 | 115 to 119 °C | Fc1cc(F)cc(-c2nc(-c3ccccn3)no2)c1
94 | 189 to 190 °C | Cn1c(Nc2c(Cl)cccc2Cl)nc2cc(C(=O)NC3CCC(C)(C)CC3)ccc21
95 | 142 °C | CCOC(=O)CC(Cc1ccc(OCCc2nc(-c3ccccc3)oc2C)cc1)C(N)=O (stereo unspecified)
96 | 90.5 to 92 °C | C=CCN(C(=O)n1oc(C)c(Cl)c1=O)c1ccc(Cl)cc1Cl
97 | 98 to 115 °C | CCCN1CCC(Cc2ccc3c(c2)c(Cc2ccc(C(=O)NS(=O)(=O)c4ccccc4C)cc2OC)cn3CCC)C1=O (stereo unspecified)
98 | 187 to 189 °C | O=C(O)COc1ccc(C(=CC(=O)NCc2cccnc2)c2ccccc2)cc1

Row | Structure (SMILES) | melting point
99 | COc1ccc2[nH]c(C(=O)C34CC5CC(CC(C5)C3)C4)cc2c1 | 229 to 231 °C
100 | CN1C(c2cccnc2)CC(=O)CC1c1cccnc1 (stereo unspecified) | 103 to 106 °C
101 | CC1=CCC2(C)C(CCC3C4CCC(O)C4(C)CCC32)C1 (stereo unspecified) | 128 to 130 °C
